In US20250197374A1, “WEE1 DEGRADING COMPOUNDS AND USES THEREOF” (BRISTOL-MYERS SQUIBB COMPANY, priority 2023, published 2025):

Columns and labels:
Format in all cases: cell-based
[1] = molecular target: T1, WEE1 (Homo sapiens, UniProt P30291+Q96SW2); test: WEE1-ePL degradation assay (293T-LentiX, InCELL Hunter luminescence, 4 hr); settings: for 293T-LentiX WEE1-ePL Degradation 4 hr YMin (%): lower limit of fit, % of DMSO control signal remaining; for DC50: LentiX-HEK293T cells expressing WEE1-ePL, 4 hr incubation, read-out: 293T-LentiX WEE1-ePL Degradation 4 hr EC50
T1 construct: C-terminal ePL-tagged (DiscoverX, Fremont, CA) full-length WEE1 expression construct; expressed in transfected cells; host or cells: LentiX-HEK293T (Invitrogen), lentivirally transduced; the cells also over-express GSPT1-GN
T1 sequence (P30291 whole entry): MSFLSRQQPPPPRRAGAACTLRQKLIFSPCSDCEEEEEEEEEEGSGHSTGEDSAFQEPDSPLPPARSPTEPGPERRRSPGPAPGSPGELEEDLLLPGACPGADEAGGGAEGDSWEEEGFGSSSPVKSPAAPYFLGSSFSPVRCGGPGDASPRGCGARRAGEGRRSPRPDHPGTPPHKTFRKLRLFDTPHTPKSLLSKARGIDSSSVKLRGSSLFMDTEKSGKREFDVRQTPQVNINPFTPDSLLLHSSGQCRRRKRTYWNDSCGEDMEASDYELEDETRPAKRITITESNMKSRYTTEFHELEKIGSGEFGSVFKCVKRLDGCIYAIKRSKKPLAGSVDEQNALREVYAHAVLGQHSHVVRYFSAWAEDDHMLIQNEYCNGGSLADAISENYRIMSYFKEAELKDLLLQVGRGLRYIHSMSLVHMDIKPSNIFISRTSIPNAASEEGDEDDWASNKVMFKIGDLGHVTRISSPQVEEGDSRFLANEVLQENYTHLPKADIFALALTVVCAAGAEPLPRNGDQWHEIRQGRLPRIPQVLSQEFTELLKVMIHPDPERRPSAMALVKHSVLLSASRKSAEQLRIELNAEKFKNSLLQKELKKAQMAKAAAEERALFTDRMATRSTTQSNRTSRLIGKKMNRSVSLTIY
T1 sequence (Q96SW2 whole entry): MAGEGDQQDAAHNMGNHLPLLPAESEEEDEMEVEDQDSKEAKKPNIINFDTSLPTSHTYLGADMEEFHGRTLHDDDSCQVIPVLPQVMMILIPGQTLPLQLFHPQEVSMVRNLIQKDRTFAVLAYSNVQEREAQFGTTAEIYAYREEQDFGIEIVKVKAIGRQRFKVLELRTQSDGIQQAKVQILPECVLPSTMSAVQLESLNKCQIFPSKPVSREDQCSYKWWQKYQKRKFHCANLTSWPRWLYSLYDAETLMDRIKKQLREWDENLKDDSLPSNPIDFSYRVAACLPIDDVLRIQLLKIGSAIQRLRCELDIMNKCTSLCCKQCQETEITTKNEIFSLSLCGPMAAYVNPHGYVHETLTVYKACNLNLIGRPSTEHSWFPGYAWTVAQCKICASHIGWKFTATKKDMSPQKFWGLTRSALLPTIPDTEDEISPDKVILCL
T1 sequence (Q16531 whole entry partner): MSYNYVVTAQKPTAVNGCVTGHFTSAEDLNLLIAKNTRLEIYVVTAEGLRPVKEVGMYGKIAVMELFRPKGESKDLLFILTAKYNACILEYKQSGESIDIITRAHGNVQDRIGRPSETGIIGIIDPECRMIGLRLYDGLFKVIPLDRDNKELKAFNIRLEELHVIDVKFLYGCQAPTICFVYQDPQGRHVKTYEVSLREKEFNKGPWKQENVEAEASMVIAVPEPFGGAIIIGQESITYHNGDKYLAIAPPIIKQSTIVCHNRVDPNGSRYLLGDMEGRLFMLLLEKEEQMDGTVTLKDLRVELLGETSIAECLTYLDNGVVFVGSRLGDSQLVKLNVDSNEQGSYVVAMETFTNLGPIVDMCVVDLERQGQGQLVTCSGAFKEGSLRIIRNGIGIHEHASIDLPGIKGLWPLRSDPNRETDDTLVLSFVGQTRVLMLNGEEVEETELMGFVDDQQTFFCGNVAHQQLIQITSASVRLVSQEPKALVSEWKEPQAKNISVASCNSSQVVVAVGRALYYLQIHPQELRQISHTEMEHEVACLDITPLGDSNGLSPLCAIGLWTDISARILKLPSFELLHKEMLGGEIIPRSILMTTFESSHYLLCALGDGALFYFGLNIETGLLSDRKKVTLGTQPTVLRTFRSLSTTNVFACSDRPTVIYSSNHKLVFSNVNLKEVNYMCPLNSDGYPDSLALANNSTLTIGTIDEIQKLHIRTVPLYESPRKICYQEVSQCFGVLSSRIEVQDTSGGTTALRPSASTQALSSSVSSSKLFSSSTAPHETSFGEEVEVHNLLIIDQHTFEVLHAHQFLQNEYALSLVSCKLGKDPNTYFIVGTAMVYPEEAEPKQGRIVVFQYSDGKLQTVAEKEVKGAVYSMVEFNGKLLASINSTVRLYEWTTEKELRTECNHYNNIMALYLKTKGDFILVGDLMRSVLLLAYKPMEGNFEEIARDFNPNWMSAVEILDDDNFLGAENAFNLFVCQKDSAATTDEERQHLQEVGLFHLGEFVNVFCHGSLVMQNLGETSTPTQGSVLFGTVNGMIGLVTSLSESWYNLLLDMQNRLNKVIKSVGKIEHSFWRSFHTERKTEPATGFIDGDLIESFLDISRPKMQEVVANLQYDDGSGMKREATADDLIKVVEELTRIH
Outline: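 LentiX-HEK293T cells expressing C-terminally ePL-tagged full-length WEE1 plus non-degradable GSPT1-GN (G575N, N-terminal 158 aa truncated). Treated 4 h at 37 °C with a 10-point, 3-fold series from 1 or 10 µM, then read by InCELL Hunter luminescence. EC50 from four-parameter logistic fit, Ymax set by DMSO control.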

[2] = test system: MKN45 cells; test: MKN45 cell proliferation assay (Cell-Titer-Glo, 120 hr); settings: for MKN45 Cell Prolif. 120 hr YMin (%): minimal percent of DMSO control observed; for EC50: Homo sapiens, MKN-45, 120 h, read-out: MKN45 Cell Prolif. 120 hr EC50
Outline: (§1)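 MKN45 (400/well) and MDA-MB-231 (800/well) cells in RPMI with 10% FBS were exposed to 10-point half-log doses from 1 or 10 uM (0.1% DMSO) for 120 h at 37 °C. Viability was read by CellTiter-Glo luminescence. EC50 came from blank-subtracted, %DMSO four-parameter fits, with Ymin-obs as the lowest %DMSO observed.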

[3] = test system: MDA-MB-231 cells; test: MDA-MB-231 cell proliferation assay (Cell-Titer-Glo, 120 hr); settings: for EC50: Homo sapiens, MDA-MB-231, 120 h, read-out: MDA-MB 231 Cell Prolif. 120 hr EC50; for MDA-MB 231 Cell Prolif. 120 hr YMin (%): minimal percent of DMSO control observed
Outline: as §1

| SMILES | 293T-LentiX WEE1-ePL Degradation 4 hr YMin (%) [1] [%] | MKN45 Cell Prolif. 120 hr YMin (%) [2] [%] | EC50 [3] [nM] | MDA-MB 231 Cell Prolif. 120 hr YMin (%) [3] [%] | DC50 [1] [nM] | EC50 [2] [nM] |
| --- | --- | --- | --- | --- | --- | --- |
| COC[C@@H]1CN(Cc2cc(F)c3nc(C45C6C7C4C4C5C6C74C(C)(C)O)ccc3c2)C[C@H]1Oc1ccc2c(c1)CN([C@H]1CCC(=O)NC1=O)C2=O (stereo partly drawn) [Example 121, (S)-3-(5-(((3S,4S)-1-((8-fluoro-2-(4-(2-hydroxypropan-2-yl)cuban-1-yl)quinolin-6-yl)methyl)-4-(methoxymethyl)pyrrolidin-3-yl)oxy)-1-oxoisoindolin-2-yl)piperidine-2,6-dione] | 18.7 | 7.5 | 26 | 13.2 | – | – |
| COC[C@@H]1CN(Cc2cc(F)c3nc(N4C[C@H]5C[C@@H](C4)O5)ccc3c2)C[C@H]1Oc1ccc2c(c1)CN([C@H]1CCC(=O)NC1=O)C2=O [Example 47, (S)-3-(5-(((3S,4S)-1-((2-((1R,5S)-6-oxa-3-azabicyclo[3.1.1]heptan-3-yl)-8-fluoroquinolin-6-yl)methyl)-4-(methoxymethyl)pyrrolidin-3-yl)oxy)-1-oxoisoindolin-2-yl)piperidine-2,6-dione] | 28.7 | 9.8 | 34 | 30.0 | 1 | 1 |
| COC[C@@H]1CN(Cc2ccc3nc(N4CCN(C(C)=O)C5(COC5)C4)ccc3c2)C[C@H]1Oc1ccc2c(c1)CN([C@H]1CCC(=O)NC1=O)C2=O [Example 90, (3S)-3-(5-{[(3S,4S)-1-[(2-{5-acetyl-2-oxa-5,8-diazaspiro[3.5]nonan-8-yl}quinolin-6-yl)methyl]-4-(methoxymethyl)pyrrolidin-3-yl]oxy}-1-oxo-2,3-dihydro-1H-isoindol-2-yl)piperidine-2,6-dione] | 21.0 | 6.4 | 42 | 27.2 | 1 | 2 |
| COC[C@@H]1CN(Cc2cc(F)c3nc(N4CCC45COC5)ccc3c2)C[C@H]1Oc1ccc2c(c1)CN([C@H]1CCC(=O)NC1=O)C2=O [Example 75, (3S)-3-(5-{[(3S,4S)-1-[(8-fluoro-2-{6-oxa-1-azaspiro [3.3]heptan-1-yl}quinolin-6-yl)methyl]-4-(methoxymethyl)pyrrolidin-3-yl]oxy}-1-oxo-2,3-dihydro-1H-isoindol-2-yl)piperidine-2,6-dione] | 31.2 | 10.1 | 11 | 56.6 | – | 1 |
| COC[C@@H]1CN(Cc2cc(F)c3nc(C4CN(CC(C)(C)O)C4)ccc3c2)C[C@H]1Oc1ccc2c(c1)CN([C@H]1CCC(=O)NC1=O)C2=O [Example 120, (3S)-3-(5-{[(3S,4S)-1-({8-fluoro-2-[1-(2-hydroxy-2-methylpropyl)azetidin-3-yl]quinolin-6-yl}methyl)-4-(methoxymethyl)pyrrolidin-3-yl]oxy}-1-oxo-2,3-dihydro-1H-isoindol-2-yl)piperidine-2,6-dione] | 17.2 | 7.8 | 63 | 30.0 | 4 | 2 |
| COC[C@@H]1CN(Cc2cc(F)c3nc(C4CCCO4)ncc3c2)C[C@H]1Oc1ccc2c(c1)CN([C@H]1CCC(=O)NC1=O)C2=O (mixture of isomers) [Example 76, rel-(3S)-3-(5-{[(3S,4S)-1-{[8-fluoro-2-(oxolan-2-yl)quinazolin-6-yl]methyl}-4-(methoxymethyl)pyrrolidin-3-yl]oxy}-1-oxo-2,3-dihydro-1H-isoindol-2-yl)piperidine-2,6-dione] | 25.5 | 9.4 | 99 | 17.9 | 41 | 11 |
| COC[C@@H]1CN(Cc2cc(F)c3nc(C45CCC(C(C)(C)O)(CC4)CC5)ccc3c2)C[C@H]1Oc1ccc2c(c1)CN([C@H]1CCC(=O)NC1=O)C2=O [Example 119, (S)-3-(5-(((3S,4S)-1-((8-fluoro-2-(4-(2-hydroxypropan-2-yl)bicyclo[2.2.2]octan-1-yl)quinolin-6-yl)methyl)-4-(methoxymethyl)pyrrolidin-3-yl)oxy)-1-oxoisoindolin-2-yl)piperidine-2,6-dione] | 23.6 | 6.8 | 67 | 1.7 | – | – |
| COC[C@@H]1CN(Cc2cc(F)c3ncc(C4CCOCC4)cc3c2)C[C@H]1Oc1ccc2c(c1)CN([C@H]1CCC(=O)NC1=O)C2=O [Example 109, (3S)-3-(5-{[(3S,4S)-1-{[8-fluoro-3-(oxan-4-yl)quinolin-6-yl]methyl}-4-(methoxymethyl)pyrrolidin-3-yl]oxy}-1-oxo-2,3-dihydro-1H-isoindol-2-yl)piperidine-2,6-dione] | 27.5 | 8.7 | 16 | 37.3 | – | 1 |
| COC[C@@H]1CN(Cc2cc(F)c3nc(N4CCN(C5COC5)CC4)ncc3c2)C[C@H]1Oc1ccc2c(c1)CN([C@H]1CCC(=O)NC1=O)C2=O [Example 141, (3S)-3-(5-{[(3S,4S)-1-({8-fluoro-2-[4-(oxetan-3-yl)piperazin-1-yl]quinazolin-6-yl}methyl)-4-(methoxymethyl)pyrrolidin-3-yl]oxy}-1-oxo-2,3-dihydro-1H-isoindol-2-yl)piperidine-2,6-dione] | 26.5 | 11.4 | 44 | 31.7 | 1 | 1 |
| O=C1CC[C@H](N2Cc3cc(O[C@H]4CN(Cc5cc(F)c6nc(C7CCOCC7)ccc6c5)C[C@@H]4C4CCCC4)ccc3C2=O)C(=O)N1 (relative stereo) [Example 146, (S)-3-(5-(((3R*,4S*)-4-Cyclopentyl-1-((8-fluoro-2-(tetrahydro-2H-pyran-4-yl)-quinolin-6-yl)methyl)pyrrolidin-3-yl)oxy)-1-oxoisoindolin-2-yl)piperidine-2,6-dione] | 24.2 | 10.8 | 585 | 50.7 | 1 | 3 |
| O=C1CC[C@H](N2Cc3cc(O[C@H]4CN(Cc5cc(F)c6nc(C7CCOCC7)ccc6c5)C[C@@H]4c4ccncc4)ccc3C2=O)C(=O)N1 (relative stereo) [Example 149, ((S)-3-(5-(((3R*,4S*)-1-((8-fluoro-2-(tetrahydro-2H-pyran-4-yl)quinolin-6-yl)methyl)-4-(pyridin-4-yl)pyrrolidin-3-yl)oxy)-1-oxoisoindolin-2-yl)piperidine-2,6-dione] | 24.4 | 11.0 | 429 | 68.7 | 7 | 23 |
| O=C1CC[C@H](N2Cc3cc(O[C@H]4CCN(Cc5cc(F)c6nc(N7C[C@@H]8CCO[C@@H]8C7)ccc6c5)C4)ccc3C2=O)C(=O)N1 (single isomer, unassigned) [Example 81, (S)-3-(5-(((S)-1-((8-fluoro-2-((3aS*,6aS*)-hexahydro-5H-furo[2,3-c]pyrrol-5-yl)quinolin-6-yl)methyl)pyrrolidin-3-yl)oxy)-1-oxoisoindolin-2-yl)piperidine-2,6-dione] | 32.9 | 15.5 | 64 | 66.9 | 1 | 5 |
| COC[C@@H]1CN(Cc2cc(F)c3nc(N4CCC(OC)C4)ccc3c2)C[C@H]1Oc1ccc2c(c1)CN([C@H]1CCC(=O)NC1=O)C2=O (single isomer, unassigned) [Example 97, (S)-3-(5-(((3S,4S)-1-((8-fluoro-2-((R*)-3-methoxypyrrolidin-1-yl)quinolin-6-yl)methyl)-4-(methoxymethyl)pyrrolidin-3-yl)oxy)-1-oxoisoindolin-2-yl)piperidine-2,6-dione] | 29.8 | 8.7 | 22 | 22.0 | 1 | 1 |
| COC[C@@H]1CN(Cc2cc3ccc(C4CCN(CC(F)(F)F)CC4)cc3cn2)C[C@H]1Oc1ccc2c(c1)CN([C@H]1CCC(=O)NC1=O)C2=O [Example 38, (3S)-3-(5-{[(3S,4S)-4-(methoxymethyl)-1-({7-[1-(2,2,2-trifluoroethyl)piperidin-4-yl]isoquinolin-3-yl}methyl)pyrrolidin-3-yl]oxy}-1-oxo-2,3-dihydro-1H-isoindol-2-yl)piperidine-2,6-dione] | 28.0 | 9.8 | 19 | 21.6 | 1 | – |
